Experiments:
Assay type in all cases: in vivo
[1] = test system: common cutworm (Spodoptera Litura); assay: Insecticidal effect on common cutworm (Test Example 2); conditions: 500 ppm, 25° C.; for Insecticidal effect on common cutworm (Test Example 2), judged grade: second-instar larvae; for Insecticidal effect on common cutworm (Test Example 2), judged grade / Insecticidal effect, Test Example 2: eight days after inoculation; for Insecticidal effect, Test Example 2: cabbage leaf immersed
Description: Insecticidal effect on common cutworm (Spodoptera Litura)
After air-drying, it was placed in a plastic Petri dish with a diameter of 9 cm and inoculated with second-instar larvae of common cutworm, after which the dish was closed and then allowed to stand in a room thermostated at 25° C. Eight days after the inoculation, the dead and alive were counted. The mortality was calculated according to the following equation and the insecticidal effect was judged according to the criterion shown in Test Example 1. The test was carried out with triplicate groups of 10 insects. [formula]

[2] = test system: diamondback moth (Plutella xylostella); assay: Insecticidal effect on diamondback moth (Test Example 1); conditions: for Insecticidal effect on diamondback moth (Test Example 1), judged grade: mortality judged according to the criterion shown in Test Example 1; for Insecticidal effect (Test Example 1), judged from mortality / Insecticidal effect, Test Example 1: diamondback moth; for Insecticidal effect (Test Example 1), judged from mortality: judged by the criterion of Test Example 1
Procedure, shortened: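 Read-out was mortality from hatched-insect counts taken 6 days after the egg-bearing cabbage seedling was immersed, graded by set criteria. Seedlings were air-dried and kept at 25° C after treatment. Groups of 10 insects, in triplicate.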

[3] = test system: rice leafroller (Cnaphalocrocis medinalis); assay: Insecticidal effect on rice leafroller (Test Example 3); conditions: 500 ppm, 25° C., humidity 70%; for Insecticidal effect on rice leafroller (Test Example 3), judged grade / Insecticidal effect (Test Example 3), judged from mortality: rice lamina dip; for Insecticidal effect on rice leafroller (Test Example 3), judged grade: third-instar larvae; for Insecticidal effect on rice leafroller (Test Example 3), judged grade / Insecticidal effect, Test Example 3: four days after inoculation; for Insecticidal effect (Test Example 3), judged from mortality: 4 days after inoculation; for Insecticidal effect, Test Example 3: rice lamina immersed
Procedure, shortened: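 Groups of 10 third-instar larvae, in triplicate, are placed on air-dried lamina resting on wet filter paper. Incubation runs four days at 25° C with 70% humidity before survivors and dead are tallied.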

[4] = common cutworm second-instar larvae
[5] = third-instar larvae of rice leafroller
[6] = mortality judged by criterion of Test Example 1
[7] = rice leafroller third-instar larvae
[8] = judged by the mortality criterion of Test Example 1

For `CC(C)NC(=O)c1c(C(=O)Nc2c(Cl)cccc2Cl)cccc1[N+](=O)[O-]` [compound 635], the “Insecticidal effect on common cutworm (Test Example 2), judged grade” value (“Insecticidal effect on common cutworm” below) ([1]; cabbage leaf dip) was “D (79-50)” and the “Insecticidal effect on diamondback moth (Test Example 1), judged grade” value (shortened to “Insecticidal effect on diamondback moth”) [2] was “A (100)”.

With `Cc1ccc(OCCNC(=O)c2c(C(=O)Nc3cc(Cl)ccc3C)cccc2[N+](=O)[O-])c(C)c1` [compound 880] the “Insecticidal effect on common cutworm” value ([1]; cabbage leaf dip) was “D (79-50)”.

`CC(C)NC(=O)c1c(C(=O)Nc2cc(C(F)(F)F)cc(C(F)(F)F)c2)cccc1[N+](=O)[O-]` [compound 654] was tested, and the “Insecticidal effect on common cutworm” value ([1]; cabbage leaf dip) was “D (79-50)”.

In the case of `CSc1cccc(C(=O)NC(C)C)c1C(=O)Nc1cccc(Cl)c1C` [compound 785], the “Insecticidal effect on common cutworm” value ([1]; cabbage leaf dip) is reported as “A (100)”.

For `CC(C)NC(=O)c1ccccc1C(=O)Nc1ccc(SC(F)(F)F)cc1` [compound 1123], the “Insecticidal effect, Test Example 2” value [1, 4] was “A (100)”.

With `Cc1cc(C#Cc2ccc(Cl)cc2Cl)ccc1NC(=O)c1cccc(I)c1C(=O)NC(C)C` [compound 972] the “Insecticidal effect, Test Example 2” value [1, 4] was “A (100)”.

With `CC(C)NC(=O)c1c(I)cccc1C(=O)Nc1ccc2c(c1Cl)OC(F)(F)C(F)(F)O2` [compound 1732] the “Insecticidal effect (Test Example 2), judged from mortality” value ([1]; cabbage leaf dip, second-instar larvae of common cutworm, 8 days after inoculation) was “A (100)”.

For `CC(C)NC(=O)c1ccc(Cl)cc1C(=O)Nc1ccccc1` [compound 181], the “Insecticidal effect, Test Example 2” value ([1]; second-instar larvae of common cutworm) was “A (100)”.

With `CC(C)NC(=O)c1cccc([N+](=O)[O-])c1C(=O)Nc1ccc(C(F)(F)F)cc1Cl` [compound 740] the “Insecticidal effect on diamondback moth” value [2] was “A (100)” and the “Insecticidal effect on rice leafroller (Test Example 3), judged grade” value (shortened to “Insecticidal effect on rice leafroller”) [3] was “A (100)”.

With `CCN(CC)C(=O)c1c(F)cccc1C(=O)Nc1ccc(OC(F)(F)F)cc1` [compound 1548] the “Insecticidal effect (Test Example 1), judged from mortality” value [2] was “A (100)” and the “Insecticidal effect (Test Example 3), judged from mortality” value [3, 5] was “A (100)”.

With `Cc1cc(OC(F)(F)F)ccc1NC(=O)c1cccc(I)c1C(=O)NC(C)(C)CO` [compound 1519] the “Insecticidal effect (Test Example 1), judged from mortality” value [2] was “A (100)” and the “Insecticidal effect (Test Example 3), judged from mortality” value [3, 5] was “A (100)”.

`CC(C)NC(=O)c1c(C(=O)Nc2ccc(C(F)(F)C(F)(F)C(F)(F)C(F)(F)F)cc2)cccc1[N+](=O)[O-]` [compound 611] was tested, and the “Insecticidal effect on diamondback moth” value [2] was “A (100)” and the “Insecticidal effect on rice leafroller” value [3] was “A (100)”.

In the case of `Cc1cc(OC(F)(F)F)ccc1NC(=O)c1c(I)cccc1C(=O)NC(C)C` [compound 464], the “Insecticidal effect on diamondback moth” value [2] is reported as “A (100)” and the “Insecticidal effect on rice leafroller” value [3] is reported as “A (100)”.

With `CCCNC(=O)c1c(I)cccc1C(=O)Nc1cccc(Cl)c1C` [compound 959] the “Insecticidal effect, Test Example 1” value [2, 6] was “A (100)” and the “Insecticidal effect, Test Example 3” value [3, 7] was “A (100)”.

For `Cc1cc(OC(F)F)ccc1NC(=O)c1cccc(C)c1C(=O)NC(C)C` [compound 751], the “Insecticidal effect on diamondback moth” value [2] was “A (100)” and the “Insecticidal effect on rice leafroller” value [3] was “A (100)”.

`C#CCNC(=O)c1ccccc1C(=O)Nc1ccc(C(F)(F)C(F)(F)F)cc1C` [compound 1411] was tested, and the “Insecticidal effect, Test Example 1” value [2, 6] was “A (100)” and the “Insecticidal effect, Test Example 3” value [3, 7] was “A (100)”.

In the case of `C=CCNC(=O)c1c(C(=O)Nc2ccc(OC(F)F)cc2C)cccc1[N+](=O)[O-]` [compound 867], the “Insecticidal effect on diamondback moth” value [2] is reported as “A (100)” and the “Insecticidal effect on rice leafroller” value [3] is reported as “C (89-80)”.

In the case of `Cc1cc(Cl)ccc1NC(=O)c1cccc(OC(F)F)c1C(=O)NC(C)C` [compound 772], the “Insecticidal effect on diamondback moth” value [2] is reported as “A (100)” and the “Insecticidal effect on rice leafroller” value [3] is reported as “A (100)”.

`Cc1cc(OC(F)(F)F)ccc1NC(=O)c1cccc(I)c1C(=O)NC(C)c1ccccn1` (stereo not drawn) [compound 1775] was tested, and the “Insecticidal effect (Test Example 1), judged from mortality” value [2] was “A (100)” and the “Insecticidal effect (Test Example 3), judged from mortality” value [3, 5] was “A (100)”.

`C#CCNC(=O)c1c(I)cccc1C(=O)Nc1ccc(OC(F)F)cc1C` [compound 1456] was tested, and the “Insecticidal effect (Test Example 1), judged from mortality” value [2] was “A (100)” and the “Insecticidal effect (Test Example 3), judged from mortality” value [3, 5] was “A (100)”.

For `CCN(CC)C(=O)c1c(F)cccc1C(=O)Nc1ccc(OC(F)(F)C(F)F)cc1C` [compound 1529], the “Insecticidal effect (Test Example 1), judged from mortality” value [2] was “A (100)” and the “Insecticidal effect (Test Example 3), judged from mortality” value [3, 5] was “A (100)”.

In the case of `Cc1cc(Br)ccc1NC(=O)c1c(Br)cccc1C(=O)NC(C)C` [compound 311], the “Insecticidal effect, Test Example 1” value [2, 8] is reported as “A (100)” and the “Insecticidal effect, Test Example 3” value [3, 5] is reported as “D (79-50)”.

`Cc1cc(C(F)(F)C(F)(F)F)ccc1NC(=O)c1c(C)cccc1C(=O)NC(C)C` [compound 954] was tested, and the “Insecticidal effect, Test Example 1” value [2, 6] was “A (100)” and the “Insecticidal effect, Test Example 3” value [3, 7] was “A (100)”.

`CCN(CC)C(=O)c1c(C(=O)Nc2ccc(OC(F)(F)F)cc2C)ccc(F)c1F` [compound 1285] was tested, and the “Insecticidal effect, Test Example 1” value [2, 6] was “A (100)” and the “Insecticidal effect, Test Example 3” value [3, 7] was “A (100)”.

With `COCC(C)NC(=O)c1cccc(I)c1C(=O)Nc1ccc(C(F)(F)C(F)(F)F)cc1C` (stereo not drawn) [compound 1032] the “Insecticidal effect, Test Example 1” value [2, 6] was “A (100)” and the “Insecticidal effect, Test Example 3” value [3, 7] was “A (100)”.

`Cc1cc(C(F)(F)C(F)(F)F)ccc1NC(=O)c1cccc(F)c1C(=O)NCc1ccccc1` [compound 1470] was tested, and the “Insecticidal effect (Test Example 1), judged from mortality” value [2] was “A (100)” and the “Insecticidal effect (Test Example 3), judged from mortality” value [3, 5] was “A (100)”.

For `CC(C)NC(=O)c1c(I)cccc1C(=O)Nc1ccc(C(F)(F)C(F)(F)F)cc1C(F)(F)C(F)(F)F` [compound 1410], the “Insecticidal effect, Test Example 1” value [2, 6] was “A (100)” and the “Insecticidal effect, Test Example 3” value [3, 7] was “A (100)”.

For `COc1ccc(NC(=O)c2c(I)cccc2C(=O)NC(C)C)c(C)c1` [compound 441], the “Insecticidal effect, Test Example 1” value [2, 8] was “A (100)” and the “Insecticidal effect, Test Example 3” value [3, 5] was “B (99-90)”.

In the case of `CCCN(CC)C(=O)c1c(F)cccc1C(=O)Nc1ccc(OC(F)F)cc1` [compound 1583], the “Insecticidal effect (Test Example 1), judged from mortality” value [2] is reported as “A (100)” and the “Insecticidal effect (Test Example 3), judged from mortality” value [3, 5] is reported as “A (100)”.

With `Cc1cc(OC(F)F)ccc1NC(=O)c1c(Cl)ccc(Cl)c1C(=O)NC(C)C` [compound 258] the “Insecticidal effect, Test Example 1” value [2, 8] was “A (100)” and the “Insecticidal effect, Test Example 3” value [3, 5] was “A (100)”.

With `CC(C)NC(=O)c1c(F)cccc1C(=O)Nc1ccc(SC(F)F)cc1` [compound 477] the “Insecticidal effect on diamondback moth” value [2] was “A (100)” and the “Insecticidal effect on rice leafroller” value [3] was “C (89-80)”.

In the case of `COc1ccc(NC(=O)c2cccc(Cl)c2C(=O)NC(C)C)c(C)c1` [compound 123], the “Insecticidal effect, Test Example 1” value [2, 8] is reported as “A (100)” and the “Insecticidal effect, Test Example 3” value [3, 5] is reported as “A (100)”.

With `CC(C)NC(=O)c1cccc(Cl)c1C(=O)Nc1ccc(C(C)(C)C)cc1` [compound 196] the “Insecticidal effect, Test Example 1” value [2, 8] was “A (100)” and the “Insecticidal effect, Test Example 3” value [3, 5] was “D (79-50)”.

`CCc1ccc(Cl)c(CC)c1NC(=O)c1cccc(I)c1C(=O)NC(C)C` [compound 925] was tested, and the “Insecticidal effect on diamondback moth” value [2] was “A (100)” and the “Insecticidal effect on rice leafroller” value [3] was “A (100)”.

For `Cc1cc(OC(F)F)ccc1NC(=O)c1cccc([N+](=O)[O-])c1C(=O)NC(C)c1ccccc1` (stereo not drawn) [compound 879], the “Insecticidal effect on diamondback moth” value [2] was “A (100)” and the “Insecticidal effect on rice leafroller” value [3] was “A (100)”.

For `CC(C)NC(=O)c1cccc(I)c1C(=O)Nc1ccc(OC(F)F)c(F)c1` [compound 448], the “Insecticidal effect on diamondback moth” value [2] was “A (100)” and the “Insecticidal effect on rice leafroller” value [3] was “A (100)”.

In the case of `CSc1cccc(C(=O)Nc2ccc(Br)cc2C)c1C(=O)NC(C)C` [compound 782], the “Insecticidal effect on diamondback moth” value [2] is reported as “A (100)” and the “Insecticidal effect on rice leafroller” value [3] is reported as “A (100)”.

With `CC(C)NC(=O)c1cccc(I)c1C(=O)Nc1ccc(SCC(F)(F)F)cc1` [compound 420] the “Insecticidal effect, Test Example 1” value [2, 8] was “A (100)” and the “Insecticidal effect, Test Example 3” value [3, 5] was “D (79-50)”.

In the case of `Cc1ccc(Cl)cc1NC(=O)c1cccc(OC(F)F)c1C(=O)NC(C)C` [compound 773], the “Insecticidal effect on diamondback moth” value [2] is reported as “A (100)” and the “Insecticidal effect on rice leafroller” value [3] is reported as “A (100)”.

In the case of `Cc1ccccc1NC(=O)c1ccccc1C(=O)NC(C)C` [compound 24], the “Insecticidal effect, Test Example 1” value [2, 8] is reported as “A (100)” and the “Insecticidal effect, Test Example 3” value [3, 5] is reported as “D (79-50)”.

For `CCC(C)NC(=O)c1c(C(=O)Nc2ccc(OC(F)F)cc2C)cccc1[N+](=O)[O-]` (stereo not drawn) [compound 839], the “Insecticidal effect on diamondback moth” value [2] was “A (100)” and the “Insecticidal effect on rice leafroller” value [3] was “C (89-80)”.

From US6362369B1, “Phthalic acid diamide derivatives fluorine-containing aniline compounds as starting material, agricultural and horticultural insecticides, and a method for application of the insecticides” (Nihon Nohyaku Co., Ltd., priority 1997, dated 2002)
